What all share (format): cell-based, human
Test [1] relates to A549 (non-small cell lung cancer) cells. Put plainly: MTT antiproliferative assay, A549. The settings on record: exposure time 96 h, means ± standard deviations. As for the experimental part:
(§1) CH1/PA-1 (ovarian teratocarcinoma) cells were a generous gift from Lloyd R. Kelland (CRC Centre for Cancer Therapeutics, Institute of Cancer Research, Sutton, UK). A549 (non-small cell lung cancer), SW480, and HCT116 (both colon cancer) cells were kindly provided by the Institute of Cancer Research, Department of Medicine I, Medical University of Vienna, Austria. All cell lines were grown as monolayer cultures in Eagle’s MEM supplemented with L-glutamine (4 mM), sodium pyruvate (1 mM) and 1% (v/v) non-essential amino acid solution (all from Sigma-Aldrich) and 10% (v/v) heat-inactivated fetal calf serum (FCS, BioWest) in 75-cm^2 flasks (Starlab) at 37 °C under a humidified atmosphere containing 5% CO2 in air. […] After 24 h, test compounds were dissolved in DMSO (Fisher Scientific), serially diluted in complete MEM not to exceed a final DMSO content of 0.5% (v/v) and added in 100 μL per well. After 96 h, the drug-containing medium was replaced with 100 µL of RPMI 1640/MTT mixture, i. e., 6 parts of RPMI 1640 medium (Sigma-Aldrich; supplemented with 10% heat-inactivated fetal bovine serum and 4 mM L-glutamine), 1 part of MTT solution in phosphate-buffered saline (5 mg/mL; both from Sigma-Aldrich). After incubation for 4 h, the MTT-containing medium was replaced with 150 μL DMSO per well to dissolve the formazan product formed by viable cells. Optical densities at 550 nm (and at the reference wavelength of 690 nm) were measured with a microplate reader (ELx808, Bio-Tek). The IC50 values relative to untreated controls were interpolated from concentration–effect curves. At least three independent experiments were performed, each with triplicates per concentration level.
(In general: Tetrazolium dyes change colour on reduction, which living cells bring about.)

In test [2] the test system is SW480 (colon cancer) cells. The test can be described thus: MTT antiproliferative assay, SW480. As to conditions: exposure time 96 h, means ± standard deviations. The method, then:
as §1

The test system of test [3] is SW480 cells. The test can be described thus: Cellular accumulation by ICP-MS quantification of ruthenium (or platinum). The settings on record: 50 µM; for cellular ruthenium values: ICP-MS; for cellular accumulation, fg Ru or Pt/Cell: exposure time 2 h, ICP-MS of ruthenium. The method, then:
Ruthenium accumulation was measured by means of inductively coupled plasma mass spectrometry (ICP-MS) upon 2 h exposure of SW480 cells to 50 µM of each compound.
Cellular accumulation of the compounds was studied based on a previously described method with modifications as follows: SW480 cells with a number of 1.8 × 10^5 per well were seeded into 12-well plates in aliquots of 1 mL complete MEM and incubated at 37 °C for 24 h. Then, cells were exposed for 2 h at 37 °C to 50 μM solutions of the test compounds (containing 0.5% DMSO) in 500 µL of fresh complete MEM upon exchange of the medium. Afterwards, cells were washed three times with PBS, and lyzed with 0.4 mL sub-boiled HNO3 per well for 1 h at room temperature. Ruthenium content was quantified by ICP-MS using an Agilent 7500ce quadrupole ICP-MS instrument (Agilent Technologies, Waldbronn, Germany) equipped with a CETAC ASX-520 autosampler (Nebraska, USA) and a MicroMist nebulizer. Ruthenium and indium standards were obtained from CPI International (Amsterdam, The Netherlands). The instrument was equipped with nickel cones and operated at an RF power of 1560 W, with argon as the plasma gas (15 L/min), carrier gas (1.0–1.1 L/min) and make-up gas (0.1–0.2 L/min). The Agilent MassHunter software package (Workstation Software, Version B.01.01, Build 123.11, Patch 4, 2012) was used for data processing. Results are based on at least three independent experiments, each comprising triplicate samples. The instrument was tuned on a daily basis for maximum sensitivity and doubly charged species as well as oxide rates were <5%.

Test [4] relates to HCT116 (colon cancer) cells. The test can be described thus: MTT antiproliferative assay, HCT116. As to conditions: exposure time 96 h, means ± standard deviations. The method, then:
as §1

Test [5] deals with CH1/PA-1 (ovarian teratocarcinoma) cells. Put plainly: MTT antiproliferative assay, CH1/PA-1. The settings on record: exposure time 96 h, means ± standard deviations. As for the experimental part:
CH1/PA-1 (ovarian teratocarcinoma) cells were a generous gift from Lloyd R. Kelland (CRC Centre for Cancer Therapeutics, Institute of Cancer Research, Sutton, UK). A549 (non-small cell lung cancer), SW480, and HCT116 (both colon cancer) cells were kindly provided by the Institute of Cancer Research, Department of Medicine I, Medical University of Vienna, Austria. All cell lines were grown as monolayer cultures in Eagle’s MEM supplemented with L-glutamine (4 mM), sodium pyruvate (1 mM) and 1% (v/v) non-essential amino acid solution (all from Sigma-Aldrich) and 10% (v/v) heat-inactivated fetal calf serum (FCS, BioWest) in 75-cm^2 flasks (Starlab) at 37 °C under a humidified atmosphere containing 5% CO2 in air.
Antiproliferative activity of the compounds was determined with the colorimetric MTT assay (MTT = 3-(4,5-dimethyl-2-thiazolyl)-2,5-diphenyl-2H-tetrazolium bromide). CH1/PA-1, HCT116, SW480, and A549 cells with cell numbers of 1 × 10^3, 1.5 × 10^3, 2 × 10^3, and 3 × 10^3, respectively, were seeded in 100 μL per well into 96-well microculture plates (Starlab). After 24 h, test compounds were dissolved in DMSO (Fisher Scientific), serially diluted in complete MEM not to exceed a final DMSO content of 0.5% (v/v) and added in 100 μL per well. After 96 h, the drug-containing medium was replaced with 100 µL of RPMI 1640/MTT mixture, i. e., 6 parts of RPMI 1640 medium (Sigma-Aldrich; supplemented with 10% heat-inactivated fetal bovine serum and 4 mM L-glutamine), 1 part of MTT solution in phosphate-buffered saline (5 mg/mL; both from Sigma-Aldrich). After incubation for 4 h, the MTT-containing medium was replaced with 150 μL DMSO per well to dissolve the formazan product formed by viable cells. Optical densities at 550 nm (and at the reference wavelength of 690 nm) were measured with a microplate reader (ELx808, Bio-Tek). The IC50 values relative to untreated controls were interpolated from concentration–effect curves. At least three independent experiments were performed, each with triplicates per concentration level.

Consider `Cc1ccc(C(C)C)cc1.O=C1C2=C(NCc3ccccc3)[O][Ru-]([Cl])[O+]=C2c2ccccc21` [1a], for which the IC50 in test [1] was found to be 23.4 ± 2.5 µM; in test [2], 12.4 ± 0.4 µM; in test [4] it was 24.8 ± 6.4 µM; in test [5], 12.5 ± 4.4 µM. Further, in test [3] (2 h), the “cellular ruthenium accumulation relative to complex 1d” value was “almost fiftyfold lower”. Further, the cellular ruthenium values in test [3] (2 h) is on record as < 10 fg/cell. Further, the “cellular accumulation, fg Ru or Pt/Cell” value in test [3] is 8.4 ± 2.8 fg Ru or Pt/Cell.

For `Cc1ccc(C(C)C)cc1.Cn1ccnc1.F[P-](F)(F)(F)(F)F.O=C1C(=C(NCc2ccccc2)[O][Ru+])C(=O)c2ccccc21` [1b], the half-maximal inhibitory concentration (IC50) in test [1] came out at 21.4 ± 1.7 µM; in test [2], 10.9 ± 1 µM; in test [4], 24.6 ± 8.5 µM; in test [5], 16.2 ± 2.6 µM. In test [3], the “cellular accumulation, fg Ru or Pt/Cell” value is on record as 97 ± 28 fg Ru or Pt/Cell.

Consider `Cc1ccc(C(C)C)cc1.F[P-](F)(F)(F)(F)F.O=C1C2=C(NCc3ccccc3)[O][Ru-]([n+]3ccc[nH]3)[O+]=C2c2ccccc21` [1c], for which the IC50 amounted to 22.9 ± 3.5 µM in test [1], 15.2 ± 0.6 µM in test [2], 22.4 ± 6 µM in test [4] and 11.5 ± 2 µM in test [5]. Further, the “cellular accumulation, fg Ru or Pt/Cell” value in test [3] is reported as 67 ± 27 fg Ru or Pt/Cell.

As for `Cc1ccc(C(C)C)cc1.F[P-](F)(F)(F)(F)F.O=C1C2=C(NCc3ccccc3)[O][Ru-]([n+]3c[nH]c4ccccc43)[O+]=C2c2ccccc21` [1d], the IC50 in test [1] was determined as 19 ± 0.8 µM; in test [2] it was 8.8 ± 1.3 µM; in test [4] it was 18.8 ± 5.8 µM; in test [5], 10.6 ± 1.8 µM. Further, the cellular ruthenium values in test [3] (2 h) is > 400 fg/cell. Besides, the “cellular accumulation, fg Ru or Pt/Cell” value in test [3] was 405 ± 128 fg Ru or Pt/Cell.

As for `Cc1ccc(C(C)C)cc1.F[P-](F)(F)(F)(F)F.O=C1C2=C(NCc3ccccc3)[O][Ru-]([n+]3cc4ccccc4[nH]3)[O+]=C2c2ccccc21` [1e], the IC50 in test [1] was determined as 23.7 ± 6.4 µM; in test [2], 16.8 ± 3.1 µM; in test [4], 25.1 ± 7.1 µM; in test [5] it was 11 ± 3 µM. The “cellular accumulation, fg Ru or Pt/Cell” value in test [3] was 114 ± 35 fg Ru or Pt/Cell.

As to `Cc1ccc(C(C)C)cc1.F[P-](F)(F)(F)(F)F.O=C1C2=C(NCc3ccccc3)[O][Ru-]([NH+]3CCOCC3)[O+]=C2c2ccccc21` [1g], the IC50 in test [1] is 18.9 ± 1.4 µM; in test [2], 9.2 ± 1.8 µM; in test [4], 23.8 ± 7.6 µM; in test [5], 12.2 ± 2.7 µM. Moreover, the “cellular accumulation, fg Ru or Pt/Cell” value in test [3] is 123 ± 32 fg Ru or Pt/Cell.

A word on the IC50: it is the midpoint of a concentration-inhibition curve. Higher therefore signals a need for much substance.

The record behind these values is publication PMC6651387, “Fine-Tuning the Activation Mode of an 1,3-Indandione-Based Ruthenium(II)-Cymene Half-Sandwich Complex by Variation of Its Leaving Group” (Molecules, 2019).
